US5696151A, “Compounds useful for the inhibition of the replication of HIV-1 and HIV-1 mutants” (priority 1995, dated 1997)
In brackets after ≈: the same amount, converted by molar mass.

How the values were obtained:
Assay type in all cases: cell-based
[1] = in vitro; settings: human, cem cells, CC50 (50% cytostatic concentration), Table 2B; CEM cell proliferation; averages of 2 to 3 independent experiments
Excerpt: (§1) CEM cells were obtained from the American Tissue Cell Culture Collection (Rockville, Md.). HIV-1(IIIB) was originally obtained from the culture supernatant of persistently HIV-1-infected H9 cells and was provided by R. C. Gallo and M. Popovic (National Cancer Institute, National Institutes of Health, Bethesda, Md.). […] 67: 5353-5359 (1993); HIV-1/Lys-138 ("Lys-138") was selected for resistance against TSAO-m^3T as described in Balzarini et al, Virology 192: 246-253 (1993) and Balzarini et al, Proc. Nat. Acad. Sci. USA 90: 6952-6956 (1993); HIV-1/181-Cys ("181-Cys") was selected for resistance against pyridinone L-697,661 as described in Balzarini et al, Virology 192: 246-253 (1993); and HIV-1/188-His ("188-His") was selected for resistance against HEPT as described in Balzarini et al, Mol. Pharmocol. 44: 694-701 (1993). 188-His was then further converted to HIV-1/188-Leu "188-Leu") upon further passage in cell culture in the absence of the HEPT.
^b 50% cytostatic concentration (i.e., compound concentration require
to inhibit CEM cell proliferation by 50%)

[2] = tested on: HIV-1/181-Cys; assay: Inhibition of HIV-1 induced syncytium formation in CEM cells, RT mutant 181-Cys; settings: Human immunodeficiency virus 1, CCRF-CEM, 96 h, Table 2B, day 4, averages of 2 to 3 independent experiments, read-out: Antiviral Activity of Comparative Compounds EC50, 181-Cys
Excerpt: as §1
(§2) CEM cells were suspended at ≈300,000 cells per ml of culture medium and infected with approximately 100 CCID50 (CCID50 being the 50% cell culture infective dose) of HIV-1(IIIB) or one of the HIV-1 RT mutant strains described above. Then 100 μl of the infected cell suspensions was added to 200 μl microtiter plate wells containing 100 μl of appropriate serial (5-fold) dilutions of the test compounds. The inhibitory effect of the test compounds on HIV-1 induced syncytium formation in CEM cells was examined microscopically on day 4 post infection.

[3] = tested on: HIV-1(IIIB); assay: Inhibition of HIV-1 induced syncytium formation in CEM cells, wild type; settings: Human immunodeficiency virus 1, IIIB, CCRF-CEM, 96 h, Table 2B, WT = HIV-1(IIIB), day 4, averages of 2 to 3 independent experiments, read-out: Antiviral Activity of Comparative Compounds EC50, WT
Excerpt: as §1, §2

[4] = tested on: HIV-1/106-Ala; assay: Inhibition of HIV-1 induced syncytium formation in CEM cells, RT mutant 106-Ala; settings: Human immunodeficiency virus 1, CCRF-CEM, 96 h, Table 2B, day 4, averages of 2 to 3 independent experiments, read-out: Antiviral Activity of Comparative Compounds EC50, 106-Ala
Excerpt: as §1, §2

[5] = tested on: HIV-1/Lys-138; assay: Inhibition of HIV-1 induced syncytium formation in CEM cells, RT mutant 138-Lys; settings: Human immunodeficiency virus 1, CCRF-CEM, 96 h, Table 2B, day 4, averages of 2 to 3 independent experiments, read-out: Antiviral Activity of Comparative Compounds EC50, 138-Lys
Excerpt: as §1, §2

[6] = tested on: HIV-1/100-Ile; assay: Inhibition of HIV-1 induced syncytium formation in CEM cells, RT mutant 100-Ile; settings: Human immunodeficiency virus 1, CCRF-CEM, 96 h, Table 2B, day 4, averages of 2 to 3 independent experiments, read-out: Antiviral Activity of Comparative Compounds EC50, 100-Ile
Excerpt: as §1, §2

SMILES | CC50 [1] | EC50 [2] | EC50 [3] | EC50 [4] | EC50 [5] | EC50 [6]
Cc1occc1C(=S)Nc1ccc(Cl)c(C(=O)OC(C)C)c1 [Compound 49] | 5.2 µg/mL (≈ 15.4 µM) | 0.2 µg/mL (≈ 0.592 µM) | 0.007 µg/mL (≈ 0.0207 µM) | 0.6 µg/mL (≈ 1.78 µM) | 0.6 µg/mL (≈ 1.78 µM) | 0.6 µg/mL (≈ 1.78 µM)
Cc1ccsc1C(=S)Nc1ccc(Cl)c(C(=O)OC(C)C)c1 [Compound 88] | 5.2 µg/mL (≈ 14.7 µM) | 0.27 µg/mL (≈ 0.763 µM) | 0.01 µg/mL (≈ 0.0283 µM) | 0.6 µg/mL (≈ 1.7 µM) | 0.3 µg/mL (≈ 0.848 µM) | 0.7 µg/mL (≈ 1.98 µM)
COc1ccccc1C(=O)Nc1ccc(Cl)c(C(=O)OC2CCCC2)c1 [Compound 68] | > 100 µg/mL | 8.5 µg/mL (≈ 22.7 µM) | 0.45 µg/mL (≈ 1.2 µM) | 8.5 µg/mL (≈ 22.7 µM) | 5.5 µg/mL (≈ 14.7 µM) | 5 µg/mL (≈ 13.4 µM)
C=CCOc1cc(NC(=S)c2ccoc2C)ccc1OC [Compound 73] | > 100 µg/mL | 0.85 µg/mL (≈ 2.8 µM) | 0.017 µg/mL (≈ 0.056 µM) | 0.8 µg/mL (≈ 2.64 µM) | 0.09 µg/mL (≈ 0.297 µM) | 2.9 µg/mL (≈ 9.56 µM)
CC(C)C(OC(=O)c1cc(NC(=S)c2cccn2C)ccc1Cl)C(C)C [Compound 100] | > 100 µg/mL | 0.65 µg/mL (≈ 1.65 µM) | 0.03 µg/mL (≈ 0.0763 µM) | 0.8 µg/mL (≈ 2.04 µM) | 0.4 µg/mL (≈ 1.02 µM) | 4 µg/mL (≈ 10.2 µM)
Cc1occc1C(=S)Nc1ccc(Cl)c(OCC(=O)OC(C)(C)C)c1 [Compound 115] | 4.3 µg/mL (≈ 11.3 µM) | 0.5 µg/mL (≈ 1.31 µM) | 0.29 µg/mL (≈ 0.759 µM) | 0.2 µg/mL (≈ 0.524 µM) | 0.77 µg/mL (≈ 2.02 µM) | 0.65 µg/mL (≈ 1.7 µM)
CC(C)OC(=O)c1cc(NC(=S)c2cccs2)ccc1Cl [Compound 89] | 4.9 µg/mL (≈ 14.4 µM) | 4 µg/mL (≈ 11.8 µM) | 0.09 µg/mL (≈ 0.265 µM) | 4 µg/mL (≈ 11.8 µM) | 1.9 µg/mL (≈ 5.59 µM) | 3 µg/mL (≈ 8.83 µM)
CC(C)OC(=O)c1cc(NC(=S)c2ccco2)ccc1Cl [Compound 86] | 7.4 µg/mL (≈ 22.9 µM) | 5 µg/mL (≈ 15.4 µM) | 0.1 µg/mL (≈ 0.309 µM) | 5 µg/mL (≈ 15.4 µM) | 4 µg/mL (≈ 12.4 µM) | 5 µg/mL (≈ 15.4 µM)
C=CCON=Cc1cc(NC(=S)c2ccoc2C)ccc1Cl [Compound 111] | 12 µg/mL (≈ 35.8 µM) | 0.3 µg/mL (≈ 0.896 µM) | 0.007 µg/mL (≈ 0.0209 µM) | 0.085 µg/mL (≈ 0.254 µM) | 0.077 µg/mL (≈ 0.23 µM) | 0.5 µg/mL (≈ 1.49 µM)
CCOC(=O)c1cc(NC(=S)c2ccoc2C)ccc1C [Compound 75] | 16 µg/mL (≈ 52.7 µM) | 0.6 µg/mL (≈ 1.98 µM) | 0.009 µg/mL (≈ 0.0297 µM) | 0.7 µg/mL (≈ 2.31 µM) | 0.35 µg/mL (≈ 1.15 µM) | 0.9 µg/mL (≈ 2.97 µM)
C=CCOc1cc(NC(=S)c2sccc2C)ccc1OC [Compound 78] | 7.1 µg/mL (≈ 22.2 µM) | 3.3 µg/mL (≈ 10.3 µM) | 0.045 µg/mL (≈ 0.141 µM) | 2 µg/mL (≈ 6.26 µM) | 1.13 µg/mL (≈ 3.54 µM) | 5 µg/mL (≈ 15.7 µM)
COc1ccccc1C(=S)Nc1ccc(Cl)c(C(=O)OC(C)C)c1 [Compound 90] | 27 µg/mL (≈ 74.2 µM) | 5.5 µg/mL (≈ 15.1 µM) | 0.19 µg/mL (≈ 0.522 µM) | 6 µg/mL (≈ 16.5 µM) | 0.7 µg/mL (≈ 1.92 µM) | 3.5 µg/mL (≈ 9.62 µM)
Cc1ccccc1C(=S)Nc1ccc(Cl)c(C(=O)OC2CCCCC2)c1 [Compound 71] | 4 µg/mL (≈ 10.3 µM) | 1.6 µg/mL (≈ 4.12 µM) | 0.049 µg/mL (≈ 0.126 µM) | 3 µg/mL (≈ 7.73 µM) | 3 µg/mL (≈ 7.73 µM) | 0.6 µg/mL (≈ 1.55 µM)
C=C(C)COC(=O)c1cc(NC(=S)c2ccoc2C)ccc1Cl [Compound 51] | 6.7 µg/mL (≈ 19.2 µM) | 0.1 µg/mL (≈ 0.286 µM) | 0.006 µg/mL (≈ 0.0172 µM) | 0.03 µg/mL (≈ 0.0858 µM) | 0.03 µg/mL (≈ 0.0858 µM) | 0.8 µg/mL (≈ 2.29 µM)
COc1ccccc1C(=S)Nc1ccc(Cl)c(C(=O)OC2CCCC2)c1 [Compound 69] | 10 µg/mL (≈ 25.6 µM) | 3.5 µg/mL (≈ 8.98 µM) | 0.04 µg/mL (≈ 0.103 µM) | 0.65 µg/mL (≈ 1.67 µM) | 0.55 µg/mL (≈ 1.41 µM) | 0.65 µg/mL (≈ 1.67 µM)
C=CCOc1cc(NC(=S)c2ccoc2C)ccc1C#N [Compound 74] | > 100 µg/mL | 3 µg/mL (≈ 10.1 µM) | 0.015 µg/mL (≈ 0.0503 µM) | 0.45 µg/mL (≈ 1.51 µM) | 0.09 µg/mL (≈ 0.302 µM) | 6 µg/mL (≈ 20.1 µM)
